Positions count from the first letter of the chain named. Several values for one entry are separate records, joined by “and”; a condition that tells them apart may be missing. Equal entries are not always repeated.
What was measured:
Y2R mutant S220^5.39A = target: T1, Y2R mutant S220^5.39A (Homo sapiens, UniProt P49146, S220A); assay: NPY-induced IP accumulation (IP-One), mutant; format: cell-based
T1 construct: expressed in transfected cells; host or cells: HEK293
T1 sequence (P49146 1-381 S220A): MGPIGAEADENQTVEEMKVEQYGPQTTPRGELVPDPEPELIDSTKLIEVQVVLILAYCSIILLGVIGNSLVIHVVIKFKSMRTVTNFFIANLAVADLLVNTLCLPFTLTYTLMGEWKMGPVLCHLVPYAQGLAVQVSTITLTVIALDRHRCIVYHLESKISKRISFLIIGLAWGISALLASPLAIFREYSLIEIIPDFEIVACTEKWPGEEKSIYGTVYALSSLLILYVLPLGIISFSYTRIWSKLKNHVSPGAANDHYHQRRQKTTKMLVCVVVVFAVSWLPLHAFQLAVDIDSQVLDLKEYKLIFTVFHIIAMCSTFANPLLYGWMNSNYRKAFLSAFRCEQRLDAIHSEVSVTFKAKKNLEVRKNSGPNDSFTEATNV
Experimental: (§1) The plasmid hY2R_eYFP_pVitro2 encoding the WT Y2R and a fluorophore for investigating the receptor localization was used as template for the generation of receptor point mutations as previously described. Mutagenesis PCR was performed using the Phusion High-Fidelity Polymerase (Thermo Fisher Scientific, Waltham, MA, USA). […] The preparations of the plasmid DNA were performed using the Wizard plus Mini or Midi DNA purification kit (Promega, Madison, WI, USA).
(§2) To determine the contribution of residues to antagonist binding, IP-One accumulation assays (Cisbio, Codolet, France) were performed. HEK293 cells were seeded into six-well plates and transiently cotransfected with 3200 ng of receptor plasmid DNA and 800 ng of the chimeric G protein (Gα∆6qi4myr) to redirect the Gαi signaling pathway to the Gαq phospholipase C pathway. Transient transfection was carried out using Metafectene as transfection reagent according to the manufacturer’s protocol (Biontex, Munich, Germany) over night. The cells were then reseeded into white 384-well microplates (Greiner Bio-One, Kremsmünster, Austria) at a density of 15,000 cells per well and grown for additional 24 h.
(§3) All dilutions were performed in HBSS containing 20 mM LiCl (stimulation buffer) and DMSO with a final concentration of 0.01%.
(§4) To determine the amount of cellular IPs, the FRET acceptor (IP1-d2) and the FRET donor (anti-IP1-Cryptate) were reconstituted and diluted in lysis and detection buffer (1:20) as described in the manufacturer’s protocol. Three microliters of both solutions were added, and the cells were incubated on a tumbler for 60 min.

Y2R mutant D292^6.59N = target: T2, Y2R mutant D292^6.59N (Homo sapiens, UniProt P49146, D292N); assay: NPY-induced IP accumulation (IP-One), mutant; format: cell-based
T2 construct: expressed in transfected cells; host or cells: HEK293
T2 sequence (P49146 1-381 D292N): T1 sequence (P49146 1-381 S220A) with A220S, D292N
Experimental: as §1, §2, §3, §4

Y2R mutant L224^5.43A = target: T3, Y2R mutant L224^5.43A (Homo sapiens, UniProt P49146, L224A); assay: NPY-induced IP accumulation (IP-One), mutant; format: cell-based; conditions: 1 μM antagonist, source data Fig. 3
T3 construct: expressed in transfected cells; host or cells: HEK293
T3 sequence (P49146 whole entry L224A): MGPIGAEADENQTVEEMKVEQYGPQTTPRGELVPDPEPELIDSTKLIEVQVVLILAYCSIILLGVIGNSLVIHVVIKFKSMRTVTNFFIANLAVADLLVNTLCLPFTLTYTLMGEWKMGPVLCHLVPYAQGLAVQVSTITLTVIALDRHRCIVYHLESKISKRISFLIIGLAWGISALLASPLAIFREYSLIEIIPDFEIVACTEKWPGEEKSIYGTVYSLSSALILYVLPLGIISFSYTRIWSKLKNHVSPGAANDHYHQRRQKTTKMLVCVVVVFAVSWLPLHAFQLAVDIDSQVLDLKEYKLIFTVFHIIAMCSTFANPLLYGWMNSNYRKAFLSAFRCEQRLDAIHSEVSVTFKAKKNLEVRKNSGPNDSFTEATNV
Experimental: as §1, §2, §3, §4

Y2R mutant L227^5.46A = target: T4, Y2R mutant L227^5.46A (Homo sapiens, UniProt P49146, L227A); assay: NPY-induced IP accumulation (IP-One), mutant; format: cell-based
T4 construct: expressed in transfected cells; host or cells: HEK293
T4 sequence (P49146 1-381 L227A): T1 sequence (P49146 1-381 S220A) with A220S, L227A
Experimental: as §1, §2, §3, §4

Y2R mutant F307^7.35E = target: T5, Y2R mutant F307^7.35E (Homo sapiens, UniProt P49146, F307E); assay: NPY-induced IP accumulation (IP-One), mutant; format: cell-based; conditions: 1 μM antagonist, source data Fig. 3
T5 construct: expressed in transfected cells; host or cells: HEK293
T5 sequence (P49146 whole entry F307E): as the sequence (P49146 whole entry L224A) above, with A224L, F307E counted along it
Experimental: as §1, §2, §3, §4

Y2R mutant L284^6.51A = target: T6, Y2R mutant L284^6.51A (Homo sapiens, UniProt P49146, L284A); assay: NPY-induced IP accumulation (IP-One), mutant; format: cell-based
T6 construct: expressed in transfected cells; host or cells: HEK293
T6 sequence (P49146 1-381 L284A): T1 sequence (P49146 1-381 S220A) with A220S, L284A
Experimental: as §1, §2, §3, §4

[1] = test system: opioid and adrenergic receptors; parameters: method as in Brothers, S. P. et al., Mol. Pharmacol. 77:46–57, 2010; conditions: ref Brothers, S. P. et al., Mol. Pharmacol. 77:46–57, 2010; cited from earlier work
[2] = 1 μM antagonist, source data Fig. 3
[3] = EC50(NPY + 1 μM antagonist)/EC50(NPY)
[4] = EC50 ratio (WT)/EC50 ratio (mutant)

Average EC50 ratio (Y2R mutant S220^5.39A; [2]): 502.4
EC50 ratio (individual experiments) (Y2R mutant S220^5.39A; [2]): 515.1 and 489.7
EC50 ratio (Y2R mutant S220^5.39A; [3]): 515 and 490
Ratio change (fold) (Y2R mutant S220^5.39A; [4]): 0.3 fold
Average EC50 ratio (Y2R mutant D292^6.59N; [2]): 66.7
EC50 ratio (individual experiments) (Y2R mutant D292^6.59N; [2]): 70.5 and 62.9
EC50 ratio (Y2R mutant D292^6.59N; [3]): 71 and 63
Average EC50 ratio (Y2R mutant L224^5.43A): 738.6
EC50 ratio (individual experiments) (Y2R mutant L224^5.43A): 1348.6 and 128.7
Average EC50 ratio (Y2R mutant L227^5.46A; [2]): 27.7
EC50 ratio (individual experiments) (Y2R mutant L227^5.46A; [2]): 31.4 and 24.0
EC50 ratio (Y2R mutant L227^5.46A; [3]): 31 and 24
Ratio change (fold) (Y2R mutant L227^5.46A; [4]): 5 fold and 7 fold
Average EC50 ratio (Y2R mutant F307^7.35E): 232.3
EC50 ratio (individual experiments) (Y2R mutant F307^7.35E): 75.3 and 389.3
Average EC50 ratio (Y2R mutant L284^6.51A; [2]): 108.6
EC50 ratio (individual experiments) (Y2R mutant L284^6.51A; [2]): 88.8 and 128.4
EC50 ratio (Y2R mutant L284^6.51A; [3]): 89 and 128
Ratio change (fold) (Y2R mutant L284^6.51A; [4]): 1.8 fold and 1.2 fold
Compound: N=C(N)NCCC[C@H](NC(=O)CC1(CC(=O)N2CCN(C3c4ccccc4NC(=O)c4ccccc43)CC2)CCCC1)C(=O)NCCn1c(=O)n(-c2ccccc2)n(-c2ccccc2)c1=O (some centres unmarked) [BIIE0246]
Affinities at opioid and adrenergic receptors [1]: submicromolar
